Reference: patent publication US4683198A, “Novel maltose dehydrogenase, process for its production, and analytical method using the same” (Toyo Jozo Kabushiki Kaisha, priority 1983, dated 1987)

Biological target: T1, amylase (Homo sapiens, UniProt P0DUB6)
T1 construct: 500-fold-diluted saliva (a specimen containing amylase, 20 μl); from tissue; host or cells: saliva, 500-fold diluted
T1 sequence (P0DUB6 16-511): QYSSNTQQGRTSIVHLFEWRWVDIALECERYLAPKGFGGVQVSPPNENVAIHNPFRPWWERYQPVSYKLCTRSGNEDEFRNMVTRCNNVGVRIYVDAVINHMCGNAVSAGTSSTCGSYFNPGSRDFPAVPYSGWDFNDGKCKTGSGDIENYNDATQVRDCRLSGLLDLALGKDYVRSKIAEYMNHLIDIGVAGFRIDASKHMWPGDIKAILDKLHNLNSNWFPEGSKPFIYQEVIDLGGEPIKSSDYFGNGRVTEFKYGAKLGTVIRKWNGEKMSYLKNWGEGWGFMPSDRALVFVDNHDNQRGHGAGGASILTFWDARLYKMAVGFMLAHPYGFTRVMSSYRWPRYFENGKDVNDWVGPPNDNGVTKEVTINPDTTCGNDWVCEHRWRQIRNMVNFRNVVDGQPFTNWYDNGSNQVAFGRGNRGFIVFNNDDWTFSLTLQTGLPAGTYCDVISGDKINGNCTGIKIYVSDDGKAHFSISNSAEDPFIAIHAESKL
Test: Salivary amylase assay with modified oligosaccharide substrates (Example 3)
Assay type: biochemical
Conditions: 5 mM substrate; 500-fold-diluted saliva; 37° C.
Method: Aliquots of the reaction mixture (each 1 ml), in which 5 mM p-nitrophenylpentaoside or p-nitrophenylheptaoside was added to the same reaction mixture described in Example 2, in small test tubes, were pre-incubated at 37° C. Aliquots of 500-fold-diluted saliva (a specimen containing amylase, 20 μl) were added thereto and the mixtures were incubated for 5, 10 and 15 mins., respectively.

O=[N+]([O-])c1ccc(OC2O[C@H](CO)[C@@H](O[C@H]3O[C@H](CO)[C@@H](O[C@H]4O[C@H](CO)[C@@H](O[C@H]5O[C@H](CO)[C@@H](O[C@H]6O[C@H](CO)[C@@H](O[C@H]7O[C@H](CO)[C@@H](O[C@H]8O[C@H](CO)[C@@H](O)[C@H](O)[C@H]8O)[C@H](O)[C@H]7O)[C@H](O)[C@H]6O)[C@H](O)[C@H]5O)[C@H](O)[C@H]4O)[C@H](O)[C@H]3O)[C@H](O)[C@H]2O)cc1 (stereo partly shown) [p-nitrophenylheptaoside]
activity as compared with p-nitrophenylpentaoside: Three times stronger activity
